Values of other authors, collected in US20220362140A1, “Novel Dental Care and Cleansing Composition” (GROUP PHARMACEUTICALS, priority 2020, published 2022).

Conditions: much higher concentration

O=BO[O-].[Na+] [Sodium perboarate]
Concentration that is toxic: 25%
